For 65 molecules, IC50 results are on record in patent US20230130766A1 (SALK INSTITUTE FOR BIOLOGICAL STUDIES, priority 2020, published 2023).

This test concerns the target T1, ULK1 (Homo sapiens, UniProt O75385).
T1 sequence (O75385 1-1050): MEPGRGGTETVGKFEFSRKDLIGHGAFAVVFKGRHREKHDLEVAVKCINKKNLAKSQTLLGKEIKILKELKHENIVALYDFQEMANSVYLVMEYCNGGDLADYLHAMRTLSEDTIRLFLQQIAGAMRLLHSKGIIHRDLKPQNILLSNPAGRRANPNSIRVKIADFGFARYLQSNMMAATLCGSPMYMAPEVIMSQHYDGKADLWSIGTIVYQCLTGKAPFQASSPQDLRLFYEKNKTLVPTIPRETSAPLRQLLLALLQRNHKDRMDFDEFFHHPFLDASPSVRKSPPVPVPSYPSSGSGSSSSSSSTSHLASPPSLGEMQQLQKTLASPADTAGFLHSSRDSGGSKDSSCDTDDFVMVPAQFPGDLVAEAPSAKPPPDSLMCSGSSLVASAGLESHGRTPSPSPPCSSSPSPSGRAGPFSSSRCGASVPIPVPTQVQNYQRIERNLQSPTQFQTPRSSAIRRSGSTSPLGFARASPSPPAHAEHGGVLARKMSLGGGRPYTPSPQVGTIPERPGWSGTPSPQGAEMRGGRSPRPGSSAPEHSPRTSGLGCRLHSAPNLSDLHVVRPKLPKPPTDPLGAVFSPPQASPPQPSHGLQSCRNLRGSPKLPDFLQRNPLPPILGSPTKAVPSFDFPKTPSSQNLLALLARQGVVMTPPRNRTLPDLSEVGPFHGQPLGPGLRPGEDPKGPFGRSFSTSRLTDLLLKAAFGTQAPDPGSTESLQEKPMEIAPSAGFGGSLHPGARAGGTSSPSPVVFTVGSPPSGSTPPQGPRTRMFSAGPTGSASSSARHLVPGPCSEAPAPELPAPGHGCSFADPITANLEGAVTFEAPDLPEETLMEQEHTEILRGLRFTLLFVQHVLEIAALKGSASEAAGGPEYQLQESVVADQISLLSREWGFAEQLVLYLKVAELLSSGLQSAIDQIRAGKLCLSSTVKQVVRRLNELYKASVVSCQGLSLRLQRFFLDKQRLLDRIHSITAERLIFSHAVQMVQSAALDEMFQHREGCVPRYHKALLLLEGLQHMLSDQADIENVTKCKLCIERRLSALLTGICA
Kind of test: ULK1 inhibition assay. It counts as biochemical. The note with it: * = tested as a mixture of regioisomers.
Regarding `O=C1CCc2cc(Nc3ncc(C(F)(F)F)c(NC4CCC4)n3)ccc2N1` [Compound 150a], the IC50 is under 0.2 µM.
As for `CC1(Nc2nc(Nc3ccc4c(c3)CCC(=O)N4)ncc2C(F)(F)F)COC1` [Compound 220a], the figure is over 2 µM; as for `O=C(C1CC1)N1CCc2cc(Nc3ncc(C(F)(F)F)c(NC4CC4)n3)ccc2C1` [Compound 332], under 0.2 µM; as for `COc1cc(Nc2ncc(C(F)(F)F)c(Oc3ccccc3N)n2)cc(OC)c1OC` [Compound 346], under 0.2 µM.
The same measure for `COc1cc(Nc2ncc(C(F)(F)F)c(NC3CC3)n2)cc(OC)c1OC` [Compound 187]: under 0.2 µM; for `NC(=O)c1cccc(Nc2ncc(C(F)(F)F)c(Nc3ccc4c(c3)OCO4)n2)c1` [138*]: under 0.2 µM.
On to `FC1(F)Oc2ccc(Nc3ncc(C(F)(F)F)c(NC4CC4)n3)cc2O1` [Compound 258], for which the IC50 is over 2 µM.
As for `C[C@@H]1COCCN1c1nc(Nc2ccc3c(c2)CCC(=O)N3)ncc1C(F)(F)F` [Compound 247], the figure is under 0.2 µM; as for `CNC(=O)c1ccccc1Nc1nc(Nc2cccc(OC)c2)ncc1Cl` [Compound 44], under 0.2 µM.
The same measure for `COc1cc(Nc2ncc(C(F)(F)F)c(NCc3cccc(S(C)(=O)=O)c3)n2)cc(OC)c1OC` [Compound 31]: under 0.2 µM.
As for `O=C1CCc2cc(Nc3ncc(C(F)(F)F)c(Nc4ccccc4)n3)ccc2N1` [157*], the figure is under 0.2 µM.
In the case of `CNC(=O)c1ccccc1Oc1nc(Nc2ccc(C)cc2Cl)ncc1C(F)(F)F` [Compound 107], the IC50 was over 2 µM.
The same measure for `O=C1CCc2cc(Nc3nc(NC4CCC4)ncc3C(F)(F)F)ccc2N1` [Compound 150b]: under 0.2 µM; for `CS(=O)(=O)c1cccc(CNc2nc(Nc3ccc4c(c3)CCC(=O)N4)ncc2F)c1` [Compound 56]: over 2 µM; for `COc1ccc(C)c(Nc2ncc(Cl)c(Nc3cccc(S(=O)(=O)N(C)C)c3)n2)c1` [Compound 45]: over 2 µM.
As for `COc1ccc(C)c(Nc2ncc(Cl)c(Nc3ccc(OC)nc3)n2)c1` [Compound 34], the IC50 was over 2 µM.
The same measure for `O=C1CCc2cc(Nc3ncc(C(F)(F)F)c(Nc4cc(C5CCC5)[nH]n4)n3)ccc2N1` [Compound 271]: under 0.2 µM.
With `CC(=O)NNc1nc(Nc2ccc3c(c2)CCC(=O)N3)ncc1C(F)(F)F` [Compound 350], the 50% inhibitory concentration (IC50) was over 2 µM.
As for `c1cc(NC2CC2)nc(Nc2cnc3[nH]ccc3c2)n1` [Compound 204], the figure is over 2 µM.
As for `FC(F)(F)c1cnc(Nc2ccc(Nc3ncc(C(F)(F)F)c(NC4CC4)n3)cc2)nc1NC1CC1` [Compound 304b], the figure is over 2 µM; as for `O=C1CCc2cc(Nc3ncc(C(F)(F)F)c(OC4Cc5ccccc5C4)n3)ccc2N1` [Compound 180a], under 0.2 µM.
As for `O=C1CCc2cc(Nc3nc(NC4CC4)ncc3C(F)(F)F)ccc2N1` [Compound 131b], the figure is under 0.2 µM; as for `CNC(=O)c1ccccc1Sc1nc(Nc2cc(OC)ccc2C)ncc1C(F)(F)F` [Compound 117], over 2 µM; as for `COc1cccc(Nc2nc(Nc3ccc4c(c3)CCC(=O)N4)ncc2Cl)c1` [Compound 143a], under 0.2 µM.
For `CCN1CCOc2cc(Nc3nc(Nc4ccc5c(c4)CCC(=O)N5)ncc3Br)cnc21` [Compound 343], the IC50 was under 0.2 µM.
The same measure for `COC(=O)Nc1ccccc1Oc1nc(Nc2cc(OC)c(OC)c(OC)c2)ncc1Br` [Compound 296]: under 0.2 µM.
The same measure for `O=C1CCc2cc(Nc3ncc(Br)c(NC4CC4)n3)ccc2N1` [Compound 159]: under 0.2 µM; for `O=C1CCc2cc(Nc3ncc(C(F)(F)F)c(N(CCO)CCO)n3)ccc2N1` [Compound 212a]: over 2 µM; for `CNC(=O)c1cccc(Oc2nc(Nc3cc(OC)c(OC)c(OC)c3)ncc2Br)c1` [Compound 242]: 0.2 to 2 µM.
As for `O=C1CCc2cc(Nc3ncc(C(F)(F)F)c(OCCNCCO)n3)ccc2N1` [Compound 212b], the figure is 0.2 to 2 µM; as for `CNC(=O)c1ccccc1Oc1nc(Nc2cccc(F)c2F)ncc1C(F)(F)F` [Compound 113], over 2 µM.
`CNC(=O)c1ccccc1Nc1nc(Nc2ccc3c(c2)CCC(=O)N3)ncc1Cl` [Compound 19]: the IC50 was under 0.2 µM.
As for `Cc1cnc(Nc2ccc3c(c2)CCC(=O)N3)nc1NCc1cccc(S(C)(=O)=O)c1` [Compound 67], the figure is over 2 µM.
On to `CNC(=O)c1ccccc1Nc1nc(Nc2ccc3c(c2)CCC(=O)N3)ncc1C(F)(F)F` [Compound 76], for which the IC50 is under 0.2 µM.
As for `CNC(=O)c1c(O)cccc1Oc1nc(Nc2cc(OC)c(OC)c(OC)c2)ncc1Br` [Compound 257], the figure is under 0.2 µM; as for `CNC(=O)c1ccccc1Oc1nc(Nc2ccc(C)c(Br)c2)ncc1C(F)(F)F` [Compound 102], over 2 µM.
The same measure for `COc1cc(Nc2nc(-n3nnc4ccccc43)ncc2Br)cc(OC)c1OC` [Compound 331b]: 0.2 to 2 µM.
As for `CNC(=O)c1ccccc1Nc1ccnc(Nc2cc(OC)c(OC)c(OC)c2)n1` [Compound 60], the figure is under 0.2 µM.
Consider `O=C1CCc2cc(Nc3nc(OC4Cc5ccccc5C4)ncc3C(F)(F)F)ccc2N1` [Compound 180b], for which the IC50 was over 2 µM.
The same measure for `COc1cnc(Nc2ccc3c(c2)CCC(=O)N3)nc1Nc1ccc2c(c1)CCC(=O)N2` [Compound 135]: over 2 µM; for `COc1cc(Nc2ncc(Br)c(Nc3ccccn3)n2)cc(OC)c1OC` [Compound 22]: under 0.2 µM.
As for `FC(F)(F)c1cnc(Nc2cnc3ccccc3c2)nc1NC1CC1` [Compound 275], the figure is under 0.2 µM; as for `CN(C)c1nc(Nc2ccc3c(c2)CCC(=O)N3)ncc1C(F)(F)F` [Compound 220b], under 0.2 µM.
As for `Brc1cnc(Nc2cnc3[nH]ccc3c2)nc1NC1CC1` [Compound 174], the figure is under 0.2 µM.
Take `CNC(=O)c1ccccc1Nc1nc(Nc2ccccc2C)ncc1Cl` [Compound 53]: the concentration for half-maximal inhibition (IC50) is over 2 µM.
The same measure for `COc1c(C)cnc(CNc2nc(Nc3ccc4c(c3)CCC(=O)N4)ncc2C(F)(F)F)c1C` [Compound 82]: under 0.2 µM.
The same measure for `COc1ccc(Nc2nc(Nc3ccc(N4CCOCC4)cc3OC)ncc2C(F)(F)F)cn1` [Compound 40]: over 2 µM; for `COc1ccc(OC)c(Nc2ncc(C(F)(F)F)c(O)n2)c1` [Compound 109b]: over 2 µM.
As for `COc1cc(Nc2ncc(Br)c(Oc3cccc4cc[nH]c34)n2)cc(OC)c1OC` [Compound 329a], the figure is over 2 µM; as for `FC(F)(F)c1cnc(Nc2ccc3ncccc3c2)nc1NC1CC1` [Compound 264], under 0.2 µM; as for `Oc1ncc(C(F)(F)F)c(NC2CC2)n1` [Compound 189], over 2 µM.
In the case of `COCC(C)(CN(C)C)Nc1nc(Nc2ccc3c(c2)CCC(=O)N3)ncc1C(F)(F)F` (centres unmarked) [Compound 220c], the IC50 is over 2 µM.
Take `O=C1CCc2cc(Nc3ncc(C(F)(F)F)c(NC4Cc5ccccc5C4)n3)ccc2N1` [Compound 130a]: the IC50 was under 0.2 µM.
The same measure for `O=C1CCc2cc(Nc3nc(Nc4ccc5c(c4)OC(F)(F)O5)ncc3C(F)(F)F)ccc2N1` [Compound 178b]: under 0.2 µM.
The same measure for `Oc1ccc(CCNc2ncc(C(F)(F)F)c(NC3CC3)n2)cc1` [Compound 246]: 0.2 to 2 µM; for `COc1ccc(Nc2nc(Nc3cc(OC)c(OC)c(OC)c3)ncc2C(F)(F)F)cn1` [Compound 37]: under 0.2 µM.
As for `O=C1CCCc2cc(Nc3ncc(C(F)(F)F)c(NC4CC4)n3)ccc21` [Compound 301], the figure is under 0.2 µM; as for `Cc1cccc(Oc2nc(Nc3ccc4c(c3)CCC(=O)N4)ncc2C(F)(F)F)c1C` [Compound 83], under 0.2 µM.
For `COc1cc(Nc2ncc(Cl)c(N(C)C(=O)c3ccccc3O)n2)cc(OC)c1OC` [Compound 234b], the IC50 fell in the range of 0.2 to 2 µM.
As for `Fc1c(Nc2nc(Nc3ccc4c(c3)OCO4)ncc2C(F)(F)F)cccc1C(F)(F)F` [Compound 141b], the figure is under 0.2 µM; as for `COc1cc(N2CCOCC2)ccc1Nc1ncc(C(F)(F)F)c(NCc2cccc(S(C)(=O)=O)c2)n1` [Compound 52], over 2 µM; as for `O=C1CCc2cc(Nc3ncnc(NC4CC4)n3)ccc2N1` [Compound 225], over 2 µM.
The same measure for `FC(F)(F)c1cnc(NC2CC2)nc1Nc1ccc2c(c1)OCCO2` [Compound 158b]: under 0.2 µM; for `CNC(=O)c1ccccc1Oc1nc(Nc2cc(OC)ccc2OC)ncc1C(F)(F)F` [Compound 109a]: over 2 µM.
The same measure for `CNC(=O)c1ccccc1Nc1nc(Nc2cnc3[nH]ccc3c2)ncc1C(F)(F)F` [Compound 201]: under 0.2 µM.
